Reference: patent US20240425478A1, “CYCLOPENTYLPYRAZOLE CDK2 INHIBITORS” (Genentech, Inc., priority 2021, published 2024)
Read-outs that look alike come from different tables or passages of the source.

Columns and labels:
[1] = molecular target: T1, Cyclin Dependent Kinase 2/Cyclin E1 (CDK2-cycE1) (Homo sapiens, UniProt P24941); assay: CDK2-cycE1 TR-FRET (LANCE) enzyme assay; assay type: biochemical; conditions: for Ki: enzymatic assay, read-out: CDK2 Ki; for FS CDK1/CDK2 / FS CDK4/CDK2: fold selectivity; for increased fold-selectivity CDK4/CDK2 over Comparator C: (+) sign after FS CDK4/CDK2;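 for improvement in potency against CDK2 (Ki) over Comparator C: fold lower CDK2 Ki than comparator c (Ki 0.032 µM)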
T1 construct: purchased ProQinase 0050-0055-1
Experimental: (§1) Cyclin Dependent Kinase 1/Cyclin A2 (CDK1-cycA2), Cyclin Dependent Kinase 2/Cyclin E1 (CDK2-cycE1), Cyclin Dependent Kinase 4/Cyclin D3 (CDK4-cycD3) and Cyclin Dependent Kinase 6/Cyclin D3 (CDK6-cycD3) enzyme assays were carried out as described below.
(ii) CDK2-cycE1 TR-FRET (LANCE®)
(§2) An Echo acoustic dispenser is used to create dose responses of compound dissolved in DMSO into a 384-well microplate. A 5 μL volume of enzyme mix is added to the well, and pre-incubated with compound for 30 minutes. […] Buffer conditions are 50 mM HEPES, pH 7.5, 10 mM MgCl2, 2 mM TCEP, 0.05% BGG and 0.01% Brij 35. The reaction is quenched with 5 μL of EDTA in detection buffer (15 mM [EDTA final]). Finally, a 5 μL TR-FRET detection mix is added to the quenched reaction, which includes Europium labeled anti-phospho-MBP. […] Signal is a ratio of the Acceptor and Donor fluorescence. Inhibition constants are calculated via the Morrison equation. Enzyme source of CDK2-cycE1 is ProQinase, catalog #: 0050-0055-1.

[2] = system: SKOV-3 (ATCC HTB-77); assay: SKOV-3 EdU incorporation cell proliferation assay (CDK4/6-dependent); assay type: cell-based; conditions: Homo sapiens, cellular assay, read-out: CDK4/6 SKOV-3 IC50
Experimental: (§3) (i) OVISE and SKOV-3 EdU Incorporation Cell Proliferation Assays
(§4) Ovarian cancer cell proliferation is measured by incorporation of EdU (5-ethynyl-2′-deoxyuridine) into newly synthesized DNA. CDK2-dependent proliferation is determined using OVISE (JCRB1043, CCNE1-amplified) while CDK4/6-dependent effect is determined with SKOV-3 (ATCC HTB-77) which is not CCNE1-amplified.
(§5) Cells are plated in 384-well plates in RPMI medium supplemented with 10% FBS. Compounds are added at desired concentrations with a final DMSO content of 0.5%, and cells incubated at 37° C./5% CO2 for 16 hours. EdU (Life Technologies) is added to a final concentration of 0.5 μM and incubation continued for 8 hours, followed by fixation with 4% paraformaldehyde. […] Images are acquired using Yokogawa CQ1 imaging cytometer with a 10×objective. […] The IC50 for inhibition of cell division is determined by fitting the fraction of EdU-positive cells as a function of compound dose using a 4-parameter logistic model.

[3] = molecular target: T2, Cyclin Dependent Kinase 1/Cyclin A2 (CDK1-cycA2) (Homo sapiens, UniProt P06493); assay: CDK1-cycA2 TR-FRET (Lance) enzyme assay; assay type: biochemical; conditions: Table O, enzymatic assay
T2 construct: purchased ProQinase 0134-0054-1
Experimental: as §1
(1) CDK1-cycA2 TR-FRET (Lance®)
as §2, with “anti-phospho-4E-BP1.” for “anti-phospho-MBP.”, “equation.” for “equation. Enzyme source of CDK2-cycE1 is ProQinase, catalog #: 0050-0055-1.”

[4] = molecular target: T3, Cyclin Dependent Kinase 4/Cyclin D3 (CDK4-cycD3) (Homo sapiens, UniProt P11802); assay: CDK4-cycD3 TR-FRET (LANCE) enzyme assay; assay type: biochemical; conditions: Table O, enzymatic assay
T3 construct: purchased Carna Biosciences 04-105
Experimental: as §1
(iii) CDK4-cycD3 TR-FRET (LANCE®)
as §2, with “anti-phospho-4E-BP1.” for “anti-phospho-MBP.”, “equation.” for “equation. Enzyme source of CDK2-cycE1 is ProQinase, catalog #: 0050-0055-1.”

[5] = system: OVISE (JCRB1043, CCNE1-amplified); assay: OVISE EdU incorporation cell proliferation assay (CDK2-dependent); assay type: cell-based; conditions: for IC50: cellular assay, read-out: CDK2 OVISE IC50; for FS SKOV-3/OVISE: fold selectivity; for increased fold-selectivity SKOV-3/OVISE over Comparator C: (+) sign after FS SKOV-3/OVISE; for improvement in CDK2 OVISE cell potency over Comparator C: in brackets after OVISE IC50, Comparator C 5.5 μM
Experimental: as §3, §4, §5

[6] = Table O, enzymatic CDK1 Ki over CDK2 Ki
[7] = Table O, enzymatic CDK4 Ki over CDK2 Ki
[8] = Table Q, in brackets after CDK2 Ki, Comparator C 0.032 μM
[9] = Table O, cellular SKOV-3 IC50 over OVISE IC50

T2 sequence (P06493 whole entry): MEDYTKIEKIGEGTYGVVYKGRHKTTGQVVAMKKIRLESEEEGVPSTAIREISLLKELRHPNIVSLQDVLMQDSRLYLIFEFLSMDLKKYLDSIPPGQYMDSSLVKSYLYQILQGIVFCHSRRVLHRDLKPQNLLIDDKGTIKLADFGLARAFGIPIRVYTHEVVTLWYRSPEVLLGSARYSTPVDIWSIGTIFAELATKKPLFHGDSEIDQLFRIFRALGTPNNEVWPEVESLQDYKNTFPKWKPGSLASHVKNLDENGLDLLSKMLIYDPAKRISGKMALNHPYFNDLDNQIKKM
T2 sequence (P20248 whole entry partner): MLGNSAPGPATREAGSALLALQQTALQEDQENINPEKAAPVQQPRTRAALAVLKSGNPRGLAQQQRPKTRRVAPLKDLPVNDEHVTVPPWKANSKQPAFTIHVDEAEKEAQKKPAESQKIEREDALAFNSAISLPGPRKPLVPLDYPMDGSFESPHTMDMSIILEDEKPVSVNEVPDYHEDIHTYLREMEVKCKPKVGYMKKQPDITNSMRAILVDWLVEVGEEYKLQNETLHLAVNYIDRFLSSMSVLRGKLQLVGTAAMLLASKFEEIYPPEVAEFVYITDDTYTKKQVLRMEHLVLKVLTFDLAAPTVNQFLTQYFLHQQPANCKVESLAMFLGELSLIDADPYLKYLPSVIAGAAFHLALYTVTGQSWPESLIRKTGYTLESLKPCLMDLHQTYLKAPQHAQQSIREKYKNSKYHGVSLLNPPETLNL
T3 sequence (P11802 whole entry): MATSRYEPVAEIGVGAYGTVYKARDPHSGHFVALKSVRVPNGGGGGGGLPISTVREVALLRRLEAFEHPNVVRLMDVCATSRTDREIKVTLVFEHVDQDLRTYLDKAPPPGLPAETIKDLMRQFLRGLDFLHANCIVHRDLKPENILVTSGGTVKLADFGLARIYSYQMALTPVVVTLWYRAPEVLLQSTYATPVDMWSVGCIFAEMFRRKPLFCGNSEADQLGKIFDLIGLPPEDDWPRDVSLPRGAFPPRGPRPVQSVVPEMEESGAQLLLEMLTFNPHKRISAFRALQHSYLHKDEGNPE
T3 sequence (P30281 whole entry partner): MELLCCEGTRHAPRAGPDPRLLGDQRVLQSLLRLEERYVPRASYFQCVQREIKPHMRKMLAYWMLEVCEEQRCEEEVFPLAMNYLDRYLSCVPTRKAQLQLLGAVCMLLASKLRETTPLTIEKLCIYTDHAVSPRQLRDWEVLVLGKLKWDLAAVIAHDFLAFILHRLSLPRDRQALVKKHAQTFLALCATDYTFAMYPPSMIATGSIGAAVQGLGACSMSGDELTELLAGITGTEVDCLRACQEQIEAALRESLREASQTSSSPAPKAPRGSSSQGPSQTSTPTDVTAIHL

## CC(C)NC(=O)O[C@@H]1CC[C@H](c2cc(Nc3ccn(C)c(=O)c3)n[nH]2)C1 [Example 2AA, (1R,3S)-3-(3-((1-methyl-2-oxo-1,2-dihydropyridin-4-yl)amino)-1H-pyrazol-5-y1)cyclopenty1 isopropylcarbamate]
[1]; Table O
  Ki: 17 nM
[1]; [6]
  FS CDK1/CDK2: 26
[1]; [7]
  FS CDK4/CDK2: 26
[1]; Table Q
  increased fold-selectivity CDK4/CDK2 over Comparator C: (+) (The (+) sign in Table Q signifies desirable increased fold-selectivity of the exemplary compounds over Comparator C)
  Ki: 17 nM
[1]; Table Q, enzymatic
  FS CDK1/CDK2: 26
  FS CDK4/CDK2: 26
[1]; [8]
  improvement in potency against CDK2 (Ki) over Comparator C: 1.9 fold
[2]; SK-OV-3, Table O
  IC50: > 20000 nM
[2]; SK-OV-3, Table Q
  IC50: > 20000 nM
[3]
  Ki: 440 nM
[4]
  Ki: 450 nM
[5]; Table O
  IC50: 4100 nM
[5]; [9]
  FS SKOV-3/OVISE: >49
[5]; Table Q
  increased fold-selectivity SKOV-3/OVISE over Comparator C: (+) (The (+) sign in Table Q signifies desirable increased fold-selectivity of the exemplary compounds over Comparator C)
  improvement in CDK2 OVISE cell potency over Comparator C: 1.3 fold
[5]; Table Q, cellular
  FS SKOV-3/OVISE: > 4.9

## CNc1ncc(Nc2cc([C@H]3CC[C@@H](OC(=O)NC(C)C)C3)[nH]n2)cn1 [Example 2GG, (1R,3S)-3-(3-((2-(methylamino)pyrimidin-5-yl)amino)-1H-pyrazol-5-yl)cyclopentyl isopropylcarbamate]
[1]; Table O
  Ki: 480 nM
[1]; [6]
  FS CDK1/CDK2: 18
[1]; [7]
  FS CDK4/CDK2: 31
[2]; SK-OV-3, Table O
  IC50: > 20000 nM
[3]
  Ki: 8800 nM
[4]
  Ki: 15000 nM
[5]; Table O
  IC50: > 20000 nM
[5]; [9]
  FS SKOV-3/OVISE: 1

## Cc1ncncc1Nc1cc([C@H]2CC[C@@H](OC(=O)NC(C)C)C2)[nH]n1 [Example 2U, (1R,3S)-3-(3-((4-methylpyrimidin-5-yl)amino)-1H-pyrazol-5-yl)cyclopentyl isopropylcarbamate]
[1]
  improvement in potency against CDK2 (Ki) over Comparator C: 2 fold
[1]; Table O
  Ki: 15 nM
[1]; [6]
  FS CDK1/CDK2: 37
[1]; [7]
  FS CDK4/CDK2: 120
[1]; Table Q
  increased fold-selectivity CDK4/CDK2 over Comparator C: (+) (The (+) sign in Table Q signifies desirable increased fold-selectivity of the exemplary compounds over Comparator C)
  Ki: 15 nM
[1]; Table Q, enzymatic
  FS CDK1/CDK2: 37
  FS CDK4/CDK2: 120
[2]; SK-OV-3, Table O
  IC50: > 20000 nM
[2]; SK-OV-3, Table Q
  IC50: > 20000 nM
[3]
  Ki: 560 nM
[4]
  Ki: 1800 nM
[5]; Table O
  IC50: 400 nM
[5]; [9]
  FS SKOV-3/OVISE: >50
[5]; Table Q
  increased fold-selectivity SKOV-3/OVISE over Comparator C: (+) (The (+) sign in Table Q signifies desirable increased fold-selectivity of the exemplary compounds over Comparator C)
  improvement in CDK2 OVISE cell potency over Comparator C: 13.8 fold
[5]; Table Q, cellular
  FS SKOV-3/OVISE: > 50

## O=C(NC12CC(C1)C2)O[C@@H]1CC[C@H](c2cc(Nc3ccnnc3C3CC3)n[nH]2)C1 [Example 11, (1R,3S)-3-(3-((3-cyclopropylpyridazin-4-yl)amino)-1H-pyrazol-5-yl)cyclopentyl bicyclo[1.1.1]pentan-1-ylcarbamate]
[1]; Table O
  Ki: 12 nM
[1]; [6]
  FS CDK1/CDK2: 74
[1]; [7]
  FS CDK4/CDK2: 92
[2]; SK-OV-3, Table O
  IC50: > 20000 nM
[3]
  Ki: 890 nM
[4]
  Ki: 1100 nM
[5]; Table O
  IC50: 2600 nM
[5]; [9]
  FS SKOV-3/OVISE: >7.7

## CC(C)NC(=O)O[C@@H]1CC[C@H](c2cc(Nc3ncnc(N(C)C)n3)n[nH]2)C1 [Example 2Q, (1R,3S)-3-(3-((4-(dimethylamino)-1,3,5-triazin-2-yl)amino)-1H-pyrazol-5-yl)cyclopentyl isopropylcarbamate]
[1]; Table O
  Ki: 41 nM
[1]; [6]
  FS CDK1/CDK2: 16
[1]; [7]
  FS CDK4/CDK2: 37
[1]; Table Q
  increased fold-selectivity CDK4/CDK2 over Comparator C: (+) (The (+) sign in Table Q signifies desirable increased fold-selectivity of the exemplary compounds over Comparator C)
  Ki: 41 nM
[1]; Table Q, enzymatic
  FS CDK1/CDK2: 16
  FS CDK4/CDK2: 37
[1]; [8]
  improvement in potency against CDK2 (Ki) over Comparator C: 0.8 fold
[2]; SK-OV-3, Table O
  IC50: > 20000 nM
[2]; SK-OV-3, Table Q
  IC50: > 20000 nM
[3]
  Ki: 670 nM
[4]
  Ki: 1500 nM
[5]; Table O
  IC50: 2400 nM
[5]; [9]
  FS SKOV-3/OVISE: >8.3
[5]; Table Q
  increased fold-selectivity SKOV-3/OVISE over Comparator C: (+) (The (+) sign in Table Q signifies desirable increased fold-selectivity of the exemplary compounds over Comparator C)
  improvement in CDK2 OVISE cell potency over Comparator C: 2.3 fold
[5]; Table Q, cellular
  FS SKOV-3/OVISE: > 8.3

## CC(C)NC(=O)O[C@@H]1CC[C@H](c2cc(Nc3ccc(-n4cccn4)nc3)n[nH]2)C1 [Example 2D, (1R,3S)-3-(3-((6-(1H-pyrazol-1-yl)pyridin-3-yl)amino)-1H-pyrazol-5-yl)cyclopentyl isopropylcarbamate]
[1]
  improvement in potency against CDK2 (Ki) over Comparator C: 2.3 fold
[1]; Table O
  Ki: 14 nM
[1]; [6]
  FS CDK1/CDK2: 25
[1]; [7]
  FS CDK4/CDK2: 34
[1]; Table Q
  increased fold-selectivity CDK4/CDK2 over Comparator C: (+) (The (+) sign in Table Q signifies desirable increased fold-selectivity of the exemplary compounds over Comparator C)
  Ki: 14 nM
[1]; Table Q, enzymatic
  FS CDK1/CDK2: 25
  FS CDK4/CDK2: 34
[2]; SK-OV-3, Table O
  IC50: 14000 nM
[2]; SK-OV-3, Table Q
  IC50: 14000 nM
[3]
  Ki: 350 nM
[4]
  Ki: 480 nM
[5]; Table O
  IC50: 700 nM
[5]; [9]
  FS SKOV-3/OVISE: 20
[5]; Table Q
  increased fold-selectivity SKOV-3/OVISE over Comparator C: (+) (The (+) sign in Table Q signifies desirable increased fold-selectivity of the exemplary compounds over Comparator C)
  improvement in CDK2 OVISE cell potency over Comparator C: 7.9 fold
[5]; Table Q, cellular
  FS SKOV-3/OVISE: 20

## C[C@@H](NC(=O)O[C@@H]1CC[C@H](c2cc(Nc3cccnn3)n[nH]2)C1)C(F)(F)F (single isomer, unassigned) [Example 5B]
[1]; Table O
  Ki: 26 nM
[1]; [6]
  FS CDK1/CDK2: 12
[1]; [7]
  FS CDK4/CDK2: 20
[2]; SK-OV-3, Table O
  IC50: > 20000 nM
[3]
  Ki: 310 nM
[4]
  Ki: 510 nM
[5]; Table O
  IC50: 2900 nM
[5]; [9]
  FS SKOV-3/OVISE: >6.9
